# Tests used:
# Parameters in all cases: scale not given here
# CASOB Sicklepod [1] = assay: Postemergence herbicidal evaluation, CASOB; type: in vivo, Cassia obtusifolia, L.; conditions: postemergence spray, rated about two-three weeks after treatment
# Summary of the method: (§1)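 Visual injury rating ~2–3 wk post-spray; replicate tests averaged. Two-week-old seedlings; foliar spray at 40 psi; 0.006–0.400 kg ai/ha in 80/20 acetone/water + 1.0% methylated seed oil.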
# CASOB Sicklepod [2] = assay: Preemergence herbicidal evaluation, CASOB; type: in vivo, Cassia obtusifolia, L.; conditions: preemergence
# Summary of the method: (§2)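 Compound applied preemergence as an aqueous acetone spray onto freshly planted cups, dose equivalent approx. 0.013 to 0.800 kg/ha. Evaluation by rating at weeks 4–5.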
# ABUTH Velvetleaf [3] = assay: Postemergence herbicidal evaluation, ABUTH; type: in vivo, Abutilon theophrasti, Medic.; conditions: postemergence spray, rated about two-three weeks after treatment
# Summary of the method: as §1
# SETVI Foxtail, Green [4] = assay: Preemergence herbicidal evaluation, SETVI; type: in vivo, Setaria viridis, (L.) Beau; conditions: preemergence
# Summary of the method: as §2
# GALAP Galium [5] = assay: Postemergence herbicidal evaluation, GALAP; type: in vivo, Galium aparine; conditions: postemergence spray, rated about two-three weeks after treatment
# Summary of the method: as §1
# ORYSAT Rice, Tebonnet [6] = assay: Preemergence herbicidal evaluation, ORYSAT; type: in vivo, Oryza sativa, (L.); conditions: preemergence
# Summary of the method: as §2
# GLXMAW Soybean, Williams [7] = assay: Preemergence herbicidal evaluation, GLXMAW; type: in vivo, Glycine max, (L.) Merr. cv Williams; conditions: preemergence
# Summary of the method: as §2
# [8] = tested on: IPOHE Morningglory, Ivyleaf; assay: Preemergence herbicidal evaluation, IPOHE; type: in vivo, Ipomoea hederacea, (L.) Jacq.; conditions: preemergence
# Summary of the method: as §2
# ZEAMX Corn, Field [9] = assay: Postemergence herbicidal evaluation, ZEAMX; type: in vivo, Zea mays, L. (Sammel-Bezeichnung); conditions: postemergence spray, rated about two-three weeks after treatment
# Summary of the method: as §1
# SETVI Foxtail, Green [10] = assay: Postemergence herbicidal evaluation, SETVI; type: in vivo, Setaria viridis, (L.) Beau; conditions: postemergence spray, rated about two-three weeks after treatment
# Summary of the method: as §1
# ABUTH Velvetleaf [11] = assay: Preemergence herbicidal evaluation, ABUTH; type: in vivo, Abutilon theophrasti, Medic.; conditions: preemergence
# Summary of the method: as §2
# [12] = tested on: TRZAWR Wheat, Winter, cv Riband; assay: Preemergence herbicidal evaluation, TRZAWR; type: in vivo, Triticum aestivum; conditions: preemergence
# Summary of the method: as §2
# [13] = tested on: CHEAL Lambsquarters, Common; assay: Postemergence herbicidal evaluation, CHEAL; type: in vivo, Chenopodium album, L.; conditions: postemergence spray, rated about two-three weeks after treatment
# Summary of the method: as §1
# [14] = tested on: TRZAWR Wheat, Winter, cv Riband; assay: Postemergence herbicidal evaluation, TRZAWR; type: in vivo, Triticum aestivum; conditions: postemergence spray, rated about two-three weeks after treatment
# Summary of the method: as §1
# ECHOG Barnyardgrass [15] = assay: Preemergence herbicidal evaluation, ECHOG; type: in vivo, Echinochloa crus-galli, (L.) Beau; conditions: preemergence
# Summary of the method: as §2
# GALAP Galium [16] = assay: Preemergence herbicidal evaluation, GALAP; type: in vivo, Galium aparine; conditions: preemergence
# Summary of the method: as §2
# ORYSAT Rice, Tebonnet [17] = assay: Postemergence herbicidal evaluation, ORYSAT; type: in vivo, Oryza sativa, (L.); conditions: postemergence spray, rated about two-three weeks after treatment
# Summary of the method: as §1
# [18] = tested on: CHEAL Lambsquarters, Common; assay: Preemergence herbicidal evaluation, CHEAL; type: in vivo, Chenopodium album, L.; conditions: preemergence
# Summary of the method: as §2
# AMBEL Ragweed, Common [19] = assay: Postemergence herbicidal evaluation, AMBEL; type: in vivo, Ambrosia artemisifolia, L.; conditions: postemergence spray, rated about two-three weeks after treatment
# Summary of the method: as §1
# GLXMAW Soybean, Williams [20] = assay: Postemergence herbicidal evaluation, GLXMAW; type: in vivo, Glycine max, (L.) Merr. cv Williams; conditions: postemergence spray, rated about two-three weeks after treatment
# Summary of the method: as §1
# AMBEL Ragweed, Common [21] = assay: Preemergence herbicidal evaluation, AMBEL; type: in vivo, Ambrosia artemisifolia, L.; conditions: preemergence
# Summary of the method: as §2
# ECHOG Barnyardgrass [22] = assay: Postemergence herbicidal evaluation, ECHOG; type: in vivo, Echinochloa crus-galli, (L.) Beau; conditions: postemergence spray, rated about two-three weeks after treatment
# Summary of the method: as §1
# ZEAMX Corn, Field [23] = assay: Preemergence herbicidal evaluation, ZEAMX; type: in vivo, Zea mays, L. (Sammel-Bezeichnung); conditions: preemergence
# Summary of the method: as §2
# [24] = tested on: IPOHE Morningglory, Ivyleaf; assay: Postemergence herbicidal evaluation, IPOHE; type: in vivo, Ipomoea hederacea, (L.) Jacq.; conditions: postemergence spray, rated about two-three weeks after treatment
# Summary of the method: as §1
smiles,measurement,setting,value
COC(=O)COc1ccccc1-n1nnc2cc(F)c(-n3c(=O)cc(C(F)(F)F)n(C)c3=O)cc21 [Example 35],Postemergence herbicidal rating CASOB,CASOB Sicklepod [1]; 0.008 kg/ha,1.0
same,Postemergence herbicidal rating CASOB,CASOB Sicklepod [1]; 0.016 kg/ha,1.0
same,Postemergence herbicidal rating CASOB,CASOB Sicklepod [1]; 0.032 kg/ha,2.0
same,Postemergence herbicidal rating CASOB,CASOB Sicklepod [1]; 0.062 kg/ha,2.0
same,CASOB herbicidal rating,CASOB Sicklepod [2]; rate 0.016 kg/ha,0.0
same,CASOB herbicidal rating,CASOB Sicklepod [2]; rate 0.032 kg/ha,0.0
same,CASOB herbicidal rating,CASOB Sicklepod [2]; rate 0.062 kg/ha,4.0
same,CASOB herbicidal rating,CASOB Sicklepod [2]; rate 0.125 kg/ha,2.0
same,Postemergence herbicidal rating ABUTH,ABUTH Velvetleaf [3]; 0.008 kg/ha,5.0
same,Postemergence herbicidal rating ABUTH,ABUTH Velvetleaf [3]; 0.016 kg/ha,5.0
same,Postemergence herbicidal rating ABUTH,ABUTH Velvetleaf [3]; 0.032 kg/ha,9.0
same,Postemergence herbicidal rating ABUTH,ABUTH Velvetleaf [3]; 0.062 kg/ha,9.0
same,SETVI herbicidal rating,"SETVI Foxtail, Green [4]; rate 0.016 kg/ha",0.0
same,SETVI herbicidal rating,"SETVI Foxtail, Green [4]; rate 0.032 kg/ha",1.5
same,SETVI herbicidal rating,"SETVI Foxtail, Green [4]; rate 0.062 kg/ha",6.5
same,SETVI herbicidal rating,"SETVI Foxtail, Green [4]; rate 0.125 kg/ha",9.0
same,Postemergence herbicidal rating GALAP,GALAP Galium [5]; 0.008 kg/ha,1.0
same,Postemergence herbicidal rating GALAP,GALAP Galium [5]; 0.016 kg/ha,1.0
same,Postemergence herbicidal rating GALAP,GALAP Galium [5]; 0.032 kg/ha,3.0
same,Postemergence herbicidal rating GALAP,GALAP Galium [5]; 0.062 kg/ha,4.0
same,ORYSAT herbicidal rating,"ORYSAT Rice, Tebonnet [6]; rate 0.016 kg/ha",0.0
same,ORYSAT herbicidal rating,"ORYSAT Rice, Tebonnet [6]; rate 0.032 kg/ha",0.0
same,ORYSAT herbicidal rating,"ORYSAT Rice, Tebonnet [6]; rate 0.062 kg/ha",3.5
same,ORYSAT herbicidal rating,"ORYSAT Rice, Tebonnet [6]; rate 0.125 kg/ha",6.0
same,GLXMAW herbicidal rating,"GLXMAW Soybean, Williams [7]; rate 0.016 kg/ha",1.0
same,GLXMAW herbicidal rating,"GLXMAW Soybean, Williams [7]; rate 0.032 kg/ha",0.0
same,GLXMAW herbicidal rating,"GLXMAW Soybean, Williams [7]; rate 0.062 kg/ha",1.5
same,GLXMAW herbicidal rating,"GLXMAW Soybean, Williams [7]; rate 0.125 kg/ha",2.5
same,IPOHE herbicidal rating,[8]; rate 0.016 kg/ha,0.0
same,IPOHE herbicidal rating,[8]; rate 0.032 kg/ha,4.5
same,IPOHE herbicidal rating,[8]; rate 0.062 kg/ha,5.0
same,IPOHE herbicidal rating,[8]; rate 0.125 kg/ha,9.0
same,Postemergence herbicidal rating ZEAMX,"ZEAMX Corn, Field [9]; 0.008 kg/ha",5.0
same,Postemergence herbicidal rating ZEAMX,"ZEAMX Corn, Field [9]; 0.016 kg/ha",4.5
same,Postemergence herbicidal rating ZEAMX,"ZEAMX Corn, Field [9]; 0.032 kg/ha",5.5
same,Postemergence herbicidal rating ZEAMX,"ZEAMX Corn, Field [9]; 0.062 kg/ha",7.5
same,Postemergence herbicidal rating SETVI,"SETVI Foxtail, Green [10]; 0.008 kg/ha",1.0
same,Postemergence herbicidal rating SETVI,"SETVI Foxtail, Green [10]; 0.016 kg/ha",9.0
same,Postemergence herbicidal rating SETVI,"SETVI Foxtail, Green [10]; 0.032 kg/ha",9.0
same,Postemergence herbicidal rating SETVI,"SETVI Foxtail, Green [10]; 0.062 kg/ha",8.0
same,ABUTH herbicidal rating,ABUTH Velvetleaf [11]; rate 0.016 kg/ha,0.0
same,ABUTH herbicidal rating,ABUTH Velvetleaf [11]; rate 0.032 kg/ha,4.0
same,ABUTH herbicidal rating,ABUTH Velvetleaf [11]; rate 0.062 kg/ha,9.0
same,ABUTH herbicidal rating,ABUTH Velvetleaf [11]; rate 0.125 kg/ha,5.5
same,TRZAWR herbicidal rating,[12]; rate 0.016 kg/ha,0.0
same,TRZAWR herbicidal rating,[12]; rate 0.032 kg/ha,0.0
same,TRZAWR herbicidal rating,[12]; rate 0.062 kg/ha,1.0
same,TRZAWR herbicidal rating,[12]; rate 0.125 kg/ha,1.0
same,Postemergence herbicidal rating CHEAL,[13]; 0.008 kg/ha,1.0
same,Postemergence herbicidal rating CHEAL,[13]; 0.016 kg/ha,4.0
same,Postemergence herbicidal rating CHEAL,[13]; 0.032 kg/ha,6.0
same,Postemergence herbicidal rating CHEAL,[13]; 0.062 kg/ha,7.0
same,Postemergence herbicidal rating TRZAWR,[14]; 0.008 kg/ha,3.5
same,Postemergence herbicidal rating TRZAWR,[14]; 0.016 kg/ha,3.0
same,Postemergence herbicidal rating TRZAWR,[14]; 0.032 kg/ha,5.5
same,Postemergence herbicidal rating TRZAWR,[14]; 0.062 kg/ha,7.0
same,ECHCG herbicidal rating,ECHOG Barnyardgrass [15]; rate 0.016 kg/ha,0.0
same,ECHCG herbicidal rating,ECHOG Barnyardgrass [15]; rate 0.032 kg/ha,0.0
same,ECHCG herbicidal rating,ECHOG Barnyardgrass [15]; rate 0.062 kg/ha,2.0
same,ECHCG herbicidal rating,ECHOG Barnyardgrass [15]; rate 0.125 kg/ha,4.5
same,GALAP herbicidal rating,GALAP Galium [16]; rate 0.016 kg/ha,0.0
same,GALAP herbicidal rating,GALAP Galium [16]; rate 0.032 kg/ha,0.0
same,GALAP herbicidal rating,GALAP Galium [16]; rate 0.062 kg/ha,0.0
same,GALAP herbicidal rating,GALAP Galium [16]; rate 0.125 kg/ha,5.0
same,Postemergence herbicidal rating ORYSAT,"ORYSAT Rice, Tebonnet [17]; 0.008 kg/ha",3.0
same,Postemergence herbicidal rating ORYSAT,"ORYSAT Rice, Tebonnet [17]; 0.016 kg/ha",3.5
same,Postemergence herbicidal rating ORYSAT,"ORYSAT Rice, Tebonnet [17]; 0.032 kg/ha",6.0
same,Postemergence herbicidal rating ORYSAT,"ORYSAT Rice, Tebonnet [17]; 0.062 kg/ha",7.0
same,CHEAL herbicidal rating,[18]; rate 0.016 kg/ha,0.0
same,CHEAL herbicidal rating,[18]; rate 0.032 kg/ha,9.0
same,CHEAL herbicidal rating,[18]; rate 0.062 kg/ha,9.0
same,CHEAL herbicidal rating,[18]; rate 0.125 kg/ha,9.0
same,Postemergence herbicidal rating AMBEL,"AMBEL Ragweed, Common [19]; 0.008 kg/ha",4.0
same,Postemergence herbicidal rating AMBEL,"AMBEL Ragweed, Common [19]; 0.016 kg/ha",5.0
same,Postemergence herbicidal rating AMBEL,"AMBEL Ragweed, Common [19]; 0.032 kg/ha",9.0
same,Postemergence herbicidal rating AMBEL,"AMBEL Ragweed, Common [19]; 0.062 kg/ha",9.0
same,Postemergence herbicidal rating GLXMAW,"GLXMAW Soybean, Williams [20]; 0.008 kg/ha",5.0
same,Postemergence herbicidal rating GLXMAW,"GLXMAW Soybean, Williams [20]; 0.016 kg/ha",4.5
same,Postemergence herbicidal rating GLXMAW,"GLXMAW Soybean, Williams [20]; 0.032 kg/ha",6.0
same,Postemergence herbicidal rating GLXMAW,"GLXMAW Soybean, Williams [20]; 0.062 kg/ha",7.5
same,AMBEL herbicidal rating,"AMBEL Ragweed, Common [21]; rate 0.016 kg/ha",0.0
same,AMBEL herbicidal rating,"AMBEL Ragweed, Common [21]; rate 0.032 kg/ha",0.0
same,AMBEL herbicidal rating,"AMBEL Ragweed, Common [21]; rate 0.062 kg/ha",3.5
same,AMBEL herbicidal rating,"AMBEL Ragweed, Common [21]; rate 0.125 kg/ha",5.0
same,Postemergence herbicidal rating ECHCG,ECHOG Barnyardgrass [22]; 0.008 kg/ha,2.0
same,Postemergence herbicidal rating ECHCG,ECHOG Barnyardgrass [22]; 0.016 kg/ha,4.0
same,Postemergence herbicidal rating ECHCG,ECHOG Barnyardgrass [22]; 0.032 kg/ha,7.0
same,Postemergence herbicidal rating ECHCG,ECHOG Barnyardgrass [22]; 0.062 kg/ha,9.0
same,ZEAMX herbicidal rating,"ZEAMX Corn, Field [23]; rate 0.016 kg/ha",0.0
same,ZEAMX herbicidal rating,"ZEAMX Corn, Field [23]; rate 0.032 kg/ha",0.0
same,ZEAMX herbicidal rating,"ZEAMX Corn, Field [23]; rate 0.062 kg/ha",1.0
same,ZEAMX herbicidal rating,"ZEAMX Corn, Field [23]; rate 0.125 kg/ha",3.0
same,Postemergence herbicidal rating IPOHE,[24]; 0.008 kg/ha,9.0
same,Postemergence herbicidal rating IPOHE,[24]; 0.016 kg/ha,4.0
same,Postemergence herbicidal rating IPOHE,[24]; 0.032 kg/ha,9.0
same,Postemergence herbicidal rating IPOHE,[24]; 0.062 kg/ha,9.0

# From US20020111274A1, “1-alkyl-3-[1-(substituted phenyl) benzotriazol-6-yl] uracils” (BASF Aktiengesellschaft, priority 2000, published 2002)
